The results in this text go back to US9226923B2, “Spirocyclic molecules as protein kinase inhibitors” (Nanjing Allgen Pharma Co. Ltd., priority 2011, dated 2016).

For one experiment, the target named is Human ALK (Homo sapiens (Human), UniProt Q9UM73). Description: ALK enzyme inhibition assay (Reaction Biology Corporation). Type of experiment: biochemical. As to conditions: poly[Glu:Tyr] (4:1) 0.2 mg/ml, ATP 10 μM; read-out: Inhibitory Activities IC50, ALK. The procedure: (§1) The inhibitory activities of compounds of Formula I were assay at Reaction Biology Corporation, One Great Valley Parkway, Malvern, Pa., USA. Human ALK and cMet enzymes were used and the substrate was a peptide substrate, poly[Glu:Tyr] (4:1) at a concentration of 0.2 mg/ml.

Another experiment has as its target Human cMet (Homo sapiens (Human), UniProt P08581). Nature of the experiment: cMet enzyme inhibition assay (Reaction Biology Corporation). Type of experiment: biochemical. Conditions: poly[Glu:Tyr] (4:1) 0.2 mg/ml, ATP 10 μM; read-out: Inhibitory Activities IC50, cMet. The procedure:
as §1

The structures appear in SMILES notation.

Chain of Human cMet (P08581 25-1390): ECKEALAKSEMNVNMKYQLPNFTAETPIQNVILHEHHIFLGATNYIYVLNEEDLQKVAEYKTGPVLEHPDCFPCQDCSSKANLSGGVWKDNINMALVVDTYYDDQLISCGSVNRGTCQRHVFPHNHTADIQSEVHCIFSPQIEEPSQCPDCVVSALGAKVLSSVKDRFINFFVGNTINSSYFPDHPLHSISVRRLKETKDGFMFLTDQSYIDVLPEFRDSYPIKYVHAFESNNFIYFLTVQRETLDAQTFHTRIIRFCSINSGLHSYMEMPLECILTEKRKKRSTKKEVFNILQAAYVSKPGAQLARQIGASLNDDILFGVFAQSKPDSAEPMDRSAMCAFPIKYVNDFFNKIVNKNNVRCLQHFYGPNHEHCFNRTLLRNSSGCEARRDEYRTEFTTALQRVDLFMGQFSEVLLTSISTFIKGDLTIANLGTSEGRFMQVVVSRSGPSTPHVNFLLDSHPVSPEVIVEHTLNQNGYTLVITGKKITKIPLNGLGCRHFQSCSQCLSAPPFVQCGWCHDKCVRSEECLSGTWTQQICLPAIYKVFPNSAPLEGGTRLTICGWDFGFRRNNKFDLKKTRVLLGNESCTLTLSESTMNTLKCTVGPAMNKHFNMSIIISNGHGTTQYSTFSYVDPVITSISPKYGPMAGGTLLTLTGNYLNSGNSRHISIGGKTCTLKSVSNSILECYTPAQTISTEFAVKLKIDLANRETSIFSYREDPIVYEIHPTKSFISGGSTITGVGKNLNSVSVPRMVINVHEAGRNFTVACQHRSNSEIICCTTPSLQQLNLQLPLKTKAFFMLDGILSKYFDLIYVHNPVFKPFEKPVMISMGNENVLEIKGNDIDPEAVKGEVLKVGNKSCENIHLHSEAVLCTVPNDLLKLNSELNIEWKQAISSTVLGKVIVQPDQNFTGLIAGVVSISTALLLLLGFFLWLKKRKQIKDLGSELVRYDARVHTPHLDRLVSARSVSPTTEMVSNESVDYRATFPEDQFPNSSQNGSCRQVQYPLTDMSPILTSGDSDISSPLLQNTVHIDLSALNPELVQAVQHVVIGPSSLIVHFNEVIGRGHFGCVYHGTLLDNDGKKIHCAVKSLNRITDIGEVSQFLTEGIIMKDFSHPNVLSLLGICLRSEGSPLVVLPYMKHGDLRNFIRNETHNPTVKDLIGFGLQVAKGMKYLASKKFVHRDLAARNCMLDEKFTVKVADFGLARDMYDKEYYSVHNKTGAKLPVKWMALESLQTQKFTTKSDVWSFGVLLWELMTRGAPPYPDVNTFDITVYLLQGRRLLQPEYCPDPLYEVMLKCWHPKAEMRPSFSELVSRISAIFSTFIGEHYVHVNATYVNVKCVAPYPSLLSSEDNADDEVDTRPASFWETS
Chain of Human ALK (Q9UM73 19-1620): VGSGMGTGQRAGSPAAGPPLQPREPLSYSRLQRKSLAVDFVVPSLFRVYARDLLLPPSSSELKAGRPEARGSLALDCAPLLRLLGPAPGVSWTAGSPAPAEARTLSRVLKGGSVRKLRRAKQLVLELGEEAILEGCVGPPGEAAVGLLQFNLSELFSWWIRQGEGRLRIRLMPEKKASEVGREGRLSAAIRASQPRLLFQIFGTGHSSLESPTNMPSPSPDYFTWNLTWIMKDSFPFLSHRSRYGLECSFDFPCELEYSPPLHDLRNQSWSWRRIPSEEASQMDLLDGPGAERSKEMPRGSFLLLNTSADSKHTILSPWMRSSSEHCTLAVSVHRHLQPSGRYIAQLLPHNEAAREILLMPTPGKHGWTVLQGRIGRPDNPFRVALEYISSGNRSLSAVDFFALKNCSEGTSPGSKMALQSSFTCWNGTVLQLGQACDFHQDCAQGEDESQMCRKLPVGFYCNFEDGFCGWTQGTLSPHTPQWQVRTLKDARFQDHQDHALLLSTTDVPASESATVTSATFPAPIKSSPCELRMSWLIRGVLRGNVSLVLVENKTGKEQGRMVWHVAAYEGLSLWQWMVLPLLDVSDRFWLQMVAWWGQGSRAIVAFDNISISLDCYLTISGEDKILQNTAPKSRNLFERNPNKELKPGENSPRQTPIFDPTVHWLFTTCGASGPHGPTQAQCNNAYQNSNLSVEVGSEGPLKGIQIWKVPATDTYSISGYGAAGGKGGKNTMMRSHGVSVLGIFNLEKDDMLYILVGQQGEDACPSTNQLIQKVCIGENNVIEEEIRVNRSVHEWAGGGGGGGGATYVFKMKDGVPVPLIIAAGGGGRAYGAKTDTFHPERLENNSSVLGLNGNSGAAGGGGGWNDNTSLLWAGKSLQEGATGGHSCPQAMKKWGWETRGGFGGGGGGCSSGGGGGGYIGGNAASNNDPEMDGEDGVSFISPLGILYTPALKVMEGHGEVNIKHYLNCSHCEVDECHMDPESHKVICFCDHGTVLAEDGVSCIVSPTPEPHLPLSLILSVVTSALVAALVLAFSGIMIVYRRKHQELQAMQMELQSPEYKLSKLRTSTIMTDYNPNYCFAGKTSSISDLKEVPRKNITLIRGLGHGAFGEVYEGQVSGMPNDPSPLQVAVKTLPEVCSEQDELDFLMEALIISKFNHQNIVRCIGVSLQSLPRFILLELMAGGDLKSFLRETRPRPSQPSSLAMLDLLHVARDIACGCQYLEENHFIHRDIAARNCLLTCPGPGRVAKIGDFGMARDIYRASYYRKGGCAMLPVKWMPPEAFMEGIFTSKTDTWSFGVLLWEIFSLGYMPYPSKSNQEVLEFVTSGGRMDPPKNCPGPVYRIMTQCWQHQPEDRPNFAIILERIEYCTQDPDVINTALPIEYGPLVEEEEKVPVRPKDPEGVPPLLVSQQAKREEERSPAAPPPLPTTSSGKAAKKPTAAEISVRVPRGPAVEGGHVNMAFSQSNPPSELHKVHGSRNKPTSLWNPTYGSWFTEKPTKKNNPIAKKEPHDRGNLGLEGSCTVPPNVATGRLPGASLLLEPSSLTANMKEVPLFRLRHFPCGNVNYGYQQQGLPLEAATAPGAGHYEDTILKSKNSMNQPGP

As for `C[C@@H](Oc1cc(-c2cnn(C3CC4(CNC4)C3)c2)cnc1N)c1c(Cl)ccc(F)c1Cl` [Example 2, (R)-5-(1-(2-azaspiro[3.3]heptan-6-yl)-1H-pyrazol-4-yl)-3-(1-(2,6-dichloro-3-fluorophenyl)ethoxy)pyridin-2-amine], the IC50 on Human ALK was 2.21 nM. As for `C[C@@H](Oc1cc(-c2cnn(C3CC4(CCNCC4)C3)c2)cnc1N)c1c(Cl)ccc(F)c1Cl` [Example 3, (R)-5-(1-(7-azaspiro[3.5]nonan-2-yl)-1H-pyrazol-4-yl)-3-((R)-1-(2,6-dichloro-3-fluorophenyl)ethoxy)pyridin-2-amine], the IC50 on Human cMet stood at 8.9 nM. For `C[C@@H](Oc1cc(-c2cnn(C3CCC4(CC3)CNC4)c2)cnc1N)c1c(Cl)ccc(F)c1Cl` [Example 4, (R)-5-(1-(2-azaspiro[3.5]nonan-7-yl)-1H-pyrazol-4-yl)-3-((R)-1-(2,6-dichloro-3-fluorophenyl)ethoxy)pyridin-2-amine], the IC50 on Human cMet came to 4.8 nM; on Human ALK it was 4.31 nM. For `C[C@@H](Oc1cc(-c2cnn(C3CC4(CCCNC4)C3)c2)cnc1N)c1c(Cl)ccc(F)c1Cl` (stereo partly drawn) [Example 5], in that order: 2.09 nM and 1.92 nM.
